The text below walks through data of patent US11352350B2, “IRAK degraders and uses thereof” (Kymera Therapeutics, Inc., priority 2018, dated 2022).

As usually defined, the DC50 is the midpoint of the concentration-degradation curve. Usually IC50 stands for the concentration that gives 50% inhibition.

Each structure is given as a SMILES string. Like-named read-outs stand apart in the source and are kept apart here.

For one test, the target named is IRAK4 (Homo sapiens (Human), UniProt Q9NWZ3). The experiment in a line: IRAK4 MSD degradation in OCI-LY10. Format: cell-based. The settings on record: MSD. An outline of the steps: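 Remaining IRAK4 quantified by electrochemiluminescent MSD sandwich assay with two anti-IRAK4 antibodies. Compounds were dosed as 8 concentrations in 1:3 steps from a 1 to 10 μM final top on OCI-LY10 cells, incubated 4 to 24 h at 37° C. under 5% CO2. DC50 fitted with a three-parameter logistic curve.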

The subject of a further test is OCI-LY10. The experiment in a line: CTG Cell Viability Assay - OCI-LY10. It is filed as cell-based, human. Conditions: Homo sapiens, OCI-Ly10, 96 h, OCI-LY10, 4 days; read-out: CTG Cell Viability Assay - OCI-LY10: Average external-IC50. An outline of the steps:
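Viability read by CellTiter-Glo luminescence after 4 days at 37° C under 5% CO2 with compound (top 10 μM final, 1:3 steps, 9 doses, DMSO 0.2%). Three-parameter logistic fit gave IC50.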

[1] abbreviates: OCI-LY10, 4 hrs, read-out: IRAK4 MSD degradation in OCI-LY10 at 4 hrs: Average external-Abs DC50.
Where [2] appears, read: OCI-LY10, 24 hrs, read-out: IRAK4 MSD degradation in OCI-LY10 at 24 hrs: Average external-Abs DC50.

Sequence of IRAK4 (Q9NWZ3 whole entry): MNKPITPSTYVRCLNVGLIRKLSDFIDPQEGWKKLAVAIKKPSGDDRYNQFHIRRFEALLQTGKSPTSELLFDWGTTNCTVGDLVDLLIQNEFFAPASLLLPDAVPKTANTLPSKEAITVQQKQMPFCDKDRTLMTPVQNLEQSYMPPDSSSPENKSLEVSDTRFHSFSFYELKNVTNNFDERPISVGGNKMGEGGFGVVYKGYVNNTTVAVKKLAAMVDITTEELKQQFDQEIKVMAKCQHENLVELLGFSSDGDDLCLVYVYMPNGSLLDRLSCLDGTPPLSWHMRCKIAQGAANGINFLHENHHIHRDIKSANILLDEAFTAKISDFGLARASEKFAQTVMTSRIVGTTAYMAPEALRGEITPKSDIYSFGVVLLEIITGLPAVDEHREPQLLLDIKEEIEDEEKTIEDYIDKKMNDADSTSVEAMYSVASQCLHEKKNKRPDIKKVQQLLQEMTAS

In the case of `O=C1CCC(N2C(=O)c3cccc(NCCc4ccc(CNC[C@H]5CC[C@H](n6cc(NC(=O)c7cnn8ccc(N9C[C@H]%10C[C@@H]9CO%10)nc78)c(C(F)F)n6)CC5)cc4)c3C2=O)C(=O)N1` (stereo partly drawn) [I-351, N-[3-(difluoromethyl)-1-[4-[[[4-[2-[[2-(2,6-dioxo-3-piperidyl)-1,3-dioxo-isoindolin-4-yl]amino]ethyl]phenyl]methylamino]methyl]cyclohexyl]pyrazol-4-yl]-5-[(1R,4R)-2-oxa-5-azabicyclo[2.2.1]heptan-5-yl]pyrazolo[1,5-a]pyrimidine-3-carboxamide], the DC50 on IRAK4 (setting [1]) is > 1000 nM. For the same compound, in the test with OCI-LY10, the IC50 was > 1000 nM.
In the case of `O=C1CCC(N2C(=O)c3cccc(NCCCOC[C@@H]4CN(C[C@H]5CC[C@H](n6cc(NC(=O)c7cnn8ccc(N9C[C@H]%10C[C@@H]9CO%10)nc78)c(C(F)F)n6)CC5)CCO4)c3C2=O)C(=O)N1` (stereo partly shown) [I-352], the DC50 at IRAK4 (setting [1]) is > 1000 nM; on IRAK4 (setting [2]), 10 to 100 nM. Moreover, the 50% inhibitory concentration (IC50) with OCI-LY10 lay within 500 to 1000 nM.
On to `O=C1CCC(N2C(=O)c3cccc(NCCCOC[C@@H]4CN(C[C@H]5CC[C@H](n6cc(NC(=O)c7coc(-c8ccnc(NCC9CC9)c8)n7)c(C(F)F)n6)CC5)CCO4)c3C2=O)C(=O)N1` (stereo partly shown) [I-353], for which the DC50 at IRAK4 (setting [1]) and on IRAK4 (setting [2]) was 10 to 100 nM throughout. Further, in the test with OCI-LY10, the IC50 lay in the range of 100 to 500 nM.
In the case of `O=C1CCC(N2C(=O)c3cccc(NCCCCCCC[C@H]4CC[C@H](n5cc(NC(=O)c6cnn7ccc(N8C[C@H]9C[C@@H]8CO9)nc67)c(C(F)F)n5)CC4)c3C2=O)C(=O)N1` (stereo partly shown) [I-354], the 50% degradation concentration (DC50) at IRAK4 (setting [1]) was > 1000 nM. For the same compound, in the test with OCI-LY10, the IC50 is > 1000 nM.
For the compound `CN(C[C@H]1CC[C@H](n2cc(NC(=O)c3cnn4ccc(N5CCOCC5)nc34)c(C(F)F)n2)CC1)[C@H]1CC[C@H](Nc2cccc3c2C(=O)N(C2CCC(=O)NC2=O)C3=O)CC1` (stereo partly shown) [I-355], the DC50 on IRAK4 (setting [1]) was 10 to 100 nM; at IRAK4 (setting [2]), < 10 nM. Moreover, in the test on OCI-LY10, the IC50 was 100 to 500 nM.
Turning to `O=C1CCC(N2C(=O)c3cccc(NCc4ccc(CN5CCN(C[C@H]6CC[C@H](n7cc(NC(=O)c8cnn9ccc(N%10CCOCC%10)nc89)c(C(F)F)n7)CC6)CC5)cc4)c3C2=O)C(=O)N1` (stereo partly shown) [I-356], the figures for the DC50 on IRAK4 (setting [1]) and on IRAK4 (setting [2]) were > 1000 nM and 10 to 100 nM, respectively. Further, in the test on OCI-LY10, the IC50 was < 50 nM.
As to `CC[C@@H]1[C@H](F)C(=O)N[C@@H]1COc1ncc(C#CC2CCN(CCOCCNc3cccc4c3C(=O)N(C3CCC(=O)NC3=O)C4=O)CC2)c2cc(C(N)=O)c(OC)cc12` (stereo partly drawn) [I-357, 4-[2-[1-[2-[2-[[2-(2,6-dioxo-3-piperidyl)-1,3-dioxo-isoindolin-4-yl]amino]ethoxy]ethyl]-4-piperidyl]ethynyl]-1-[[(2S,3S,4S)-3-ethyl-4-fluoro-5-oxo-pyrrolidin-2-yl]methoxy]-7-methoxy-isoquinoline-6-carboxamide], at IRAK4 (setting [1]), the DC50 was > 1000 nM. In the test with OCI-LY10, the IC50 was > 1000 nM.
With `CN(CCCNc1cccc2c1C(=O)N(C1CCC(=O)NC1=O)C2=O)C1CCN(C(=O)[C@H]2CC[C@H](n3cc(NC(=O)c4cnn5ccc(C6C[C@H]7C[C@@H]6CO7)nc45)c(C(F)F)n3)CC2)CC1` (stereo partly shown) [I-358], the results for the DC50 on IRAK4 (setting [1]) and on IRAK4 (setting [2]) were > 1000 nM and 10 to 100 nM, respectively. Further, in the test on OCI-LY10, the IC50 lay within 50 to 100 nM.
For the compound `CN(CCc1ccc(CNc2cccc3c2C(=O)N(C2CCC(=O)NC2=O)C3=O)cc1)C[C@H]1CC[C@H](n2cc(NC(=O)c3cnn4ccc(N5C[C@H]6C[C@@H]5CO6)nc34)c(C(F)F)n2)CC1` (stereo partly shown) [I-359], the DC50 on IRAK4 (setting [1]) and on IRAK4 (setting [2]) was > 1000 nM each time. Further, the IC50 in the test with OCI-LY10 is < 50 nM.
As to `O=C1CCC(N2C(=O)c3cccc(CNC4CC5(CCN(C[C@H]6CC[C@H](n7cc(NC(=O)c8cnn9ccc(N%10C[C@H]%11C[C@@H]%10CO%11)nc89)c(C(F)F)n7)CC6)CC5)C4)c3C2=O)C(=O)N1` (stereo partly shown) [I-360], the DC50 at IRAK4 (setting [1]) is 10 to 100 nM. The IC50 in the test with OCI-LY10 was > 1000 nM.
On to `CN(CCCc1ccc(CNc2cccc3c2C(=O)N(C2CCC(=O)NC2=O)C3=O)cc1)C[C@H]1CC[C@H](n2cc(NC(=O)c3cnn4ccc(N5C[C@H]6C[C@@H]5CO6)nc34)c(C(F)F)n2)CC1` (stereo partly shown) [I-361], for which the DC50 at IRAK4 (setting [1]) was > 1000 nM; at IRAK4 (setting [2]), 10 to 100 nM. Further, the IC50 in the test with OCI-LY10 was in the range of 500 to 1000 nM.
`O=C1CCC(N2C(=O)c3cccc(NCCc4ccc(C5CCN(C[C@H]6CC[C@H](n7cc(NC(=O)c8cnn9ccc(N%10C[C@H]%11C[C@@H]%10CO%11)nc89)c(C(F)F)n7)CC6)CC5)cc4)c3C2=O)C(=O)N1` (stereo partly shown) [I-362]: the DC50 at IRAK4 (setting [1]) fell in the range of 100 to 1000 nM; at IRAK4 (setting [2]) it was 10 to 100 nM. Also, in the test with OCI-LY10, the IC50 lay within 500 to 1000 nM.
Consider `O=C1CCC(N2C(=O)c3cccc(NCCCOCCCOC[C@H]4CC[C@H](n5cc(NC(=O)c6cnn7ccc(N8C[C@H]9C[C@@H]8CO9)nc67)c(C(F)F)n5)CC4)c3C2=O)C(=O)N1` (stereo partly shown) [I-363], for which the DC50 on IRAK4 (setting [1]) was > 1000 nM. Further, the IC50 with OCI-LY10 is > 1000 nM.
